What was measured:
canine model = conditions: 2000 μg/d for 28 days, intrathecal; cited from earlier work
[1] = system: chronic spastic SCl rat model; experiment: Ability to walk a series of balance beams (7.7 cm to 1.7 cm) in spastic SCI rats; type: in vivo, Sprague Dawley rats; conditions: for beam walking, mean: 15 micrograms per day intrathecal
Procedure: Subjects—Twenty Sprague Dawley rats with severe spinal cord injury and spasticity, which were more than ten weeks from initial weight, drop injury. […] The rats were implanted using the 2 French Fogarty balloon catheter attached to a refillable 1 cc. Pumps (ESOX Minneapolis Minn.) placed surgically in the subcutaneously between the shoulder blades one week earlier that had been effectively delivering preservative free normal saline. The ESOX pump flowed at a rate of 60 μl per day. The pump initially contained saline solution and the animals were again tested several days after pump placement for spasticity. Design—Rats were randomized to a blinded three-arm study utilizing GABAmide, baclofen and placebo in a cross over design. The pump has the advantage that the solution in the pump can be changed so that drugs can be evaluated. GABAmide was placed in the pumps and the animals were evaluated at the times specified below. Main Outcome Measures—Rats were tested weekly for levels of spasticity: 4) spasms spontaneously occur over a four minute observation period 3) spasms with light touch of the foot 2) spasms with passive movement of the foot and leg by extending the leg 1) spasms with painful stimulation—extend leg and pinch foot 0) no spasms inducible This scale was adapted for use in animals from the Ashworth score (Albright et al., Intrathecal baclofen therapy for spasticity of cerebral origin: Patient selection guidelines 1997), which has been utilized so frequently in human trials and in the clinical management of intrathecal baclofen. Meythaler et al., Arch. Phys. Med. Rehabil. […] Rats were also assessed for functional changes utilizing the BBB scoring system for motor function and for their ability to walk a series of balance beams without falling that started at 7.7 cm. and decreased in 1 cm increments to 1.7 cm. in diameter (the smallest a normal rat can easily and reliably cross). […] Differences over times were assessed via descriptive statistics, Friedman's analysis, Wilcoxon signed-rank, for nonparametric data (spasticity, BBB score and beam walking).

[2] = system: chronic spastic SCl rat model; experiment: BBB scoring system for motor function in spastic SCI rats; type: in vivo, Sprague Dawley rats
Procedure: (§1) Subjects—Twenty Sprague Dawley rats with severe spinal cord injury and spasticity, which were more than ten weeks from initial weight, drop injury. […] The rats were implanted using the 2 French Fogarty balloon catheter attached to a refillable 1 cc. Pumps (ESOX Minneapolis Minn.) placed surgically in the subcutaneously between the shoulder blades one week earlier that had been effectively delivering preservative free normal saline. The ESOX pump flowed at a rate of 60 μl per day. The pump initially contained saline solution and the animals were again tested several days after pump placement for spasticity. […] The pump has the advantage that the solution in the pump can be changed so that drugs can be evaluated. GABAmide was placed in the pumps and the animals were evaluated at the times specified below. […] Rats were also assessed for functional changes utilizing the BBB scoring system for motor function and for their ability to walk a series of balance beams without falling that started at 7.7 cm. and decreased in 1 cm increments to 1.7 cm. in diameter (the smallest a normal rat can easily and reliably cross). […] Differences over times were assessed via descriptive statistics, Friedman's analysis, Wilcoxon signed-rank, for nonparametric data (spasticity, BBB score and beam walking).

[3] = system: chronic spastic SCl rat model; experiment: Tolerability of intrathecal delivery in spastic SCI rats; type: in vivo
Procedure: (§2) A study on the use GABAmide was performed to compare its effectiveness to reduce spasticity and assess toxicity via intrathecal delivery in a chronic spastic SCl rat model utilizing an implantable refillable pump.
as §1, with “day.” for “day. The pump initially contained saline solution and the animals were again tested several days after pump placement for spasticity.”

Stability in solution = type: physicochemical
Source text: In a preferred embodiment, the compound administered to a patient or subject is the gamma-aminobutyramide, a solubility product obtained by dissolving PROGABIDE in a solvent thereby generating gamma-aminobutyramide and an insoluble ketone. The insoluble ketone (4-chlorophenyl-5-fluoro-2-hydroxyphenylmethanone) is subsequently removed by filtration leaving the pure, stable gamma-aminobutyramide.

[4] = system: chronic spastic SCl rat model; experiment: Spasticity score (scale adapted from the Ashworth score) in chronic spastic SCI rat model, intrathecal delivery by implantable pump; type: in vivo, Sprague Dawley rats; conditions: compared with baclofen
Procedure: as §2
as §1, with “day.” for “day. The pump initially contained saline solution and the animals were again tested several days after pump placement for spasticity.”

Solubility in water = type: physicochemical
[5] = 5 micrograms per day intrathecal, throughout the study

beam walking, mean ([1]; day five of treatment) [cm] | beam walking, mean ([1]; day three, baseline 5.2 cm, p=0.01 Friedman's) [cm] | change in BBB score ([2]; 15 micrograms per day intrathecal, day five of treatment) | Structure (SMILES) | histopathology (canine model) | tolerability [3] | stability (Stability in solution) | accommodation to spasticity [4] | change in beam walking [1, 5] | solubility in water (Solubility in water) | change in BBB score [2, 5]
6.0 | 2.7 | not significant | NCC(CC(=O)O)c1ccc(Cl)cc1 (stereo not shown) [baclofen] | no deleterious histopathology |  |  |  |  |  | 
 |  |  | NCCCC(N)=O [GABAmide, gamma-aminobutyramide] |  | well tolerated | relatively stable for long periods of time | less accommodation to spasticity than baclofen | not statistically significant change | soluble in water | not statistically significant change

Source: patent publication US7354954B1, “Use of GABA agonists for treatment of spastic disorders, convulsions, and epilepsy” (priority 2000, dated 2008)
